# Data from ChEMBL document CHEMBL4028852, “Design of a Chemical Probe for the Bromodomain and Plant Homeodomain Finger-Containing (BRPF) Family of Proteins” (J Med Chem, 2017).
# How the values were obtained:
# [1] = target: Bromodomain-containing protein 4 (Homo sapiens, UniProt O60885); assay: Inhibition of human BRD4 bromodomain 1 (unknown origin) by Alexa Fluor 647-JQ1 probe-based fluoresence polarization competition assay
# [2] = target: T1, Transcription intermediary factor 1-alpha (Homo sapiens, UniProt O15164); assay: Inhibition of human TRIM24 bromodomain (790 to 977 residues) expressed in Escherichia coli BL21 after 1 hr by BROMOscan assay
# T1 sequence (O15164 whole entry): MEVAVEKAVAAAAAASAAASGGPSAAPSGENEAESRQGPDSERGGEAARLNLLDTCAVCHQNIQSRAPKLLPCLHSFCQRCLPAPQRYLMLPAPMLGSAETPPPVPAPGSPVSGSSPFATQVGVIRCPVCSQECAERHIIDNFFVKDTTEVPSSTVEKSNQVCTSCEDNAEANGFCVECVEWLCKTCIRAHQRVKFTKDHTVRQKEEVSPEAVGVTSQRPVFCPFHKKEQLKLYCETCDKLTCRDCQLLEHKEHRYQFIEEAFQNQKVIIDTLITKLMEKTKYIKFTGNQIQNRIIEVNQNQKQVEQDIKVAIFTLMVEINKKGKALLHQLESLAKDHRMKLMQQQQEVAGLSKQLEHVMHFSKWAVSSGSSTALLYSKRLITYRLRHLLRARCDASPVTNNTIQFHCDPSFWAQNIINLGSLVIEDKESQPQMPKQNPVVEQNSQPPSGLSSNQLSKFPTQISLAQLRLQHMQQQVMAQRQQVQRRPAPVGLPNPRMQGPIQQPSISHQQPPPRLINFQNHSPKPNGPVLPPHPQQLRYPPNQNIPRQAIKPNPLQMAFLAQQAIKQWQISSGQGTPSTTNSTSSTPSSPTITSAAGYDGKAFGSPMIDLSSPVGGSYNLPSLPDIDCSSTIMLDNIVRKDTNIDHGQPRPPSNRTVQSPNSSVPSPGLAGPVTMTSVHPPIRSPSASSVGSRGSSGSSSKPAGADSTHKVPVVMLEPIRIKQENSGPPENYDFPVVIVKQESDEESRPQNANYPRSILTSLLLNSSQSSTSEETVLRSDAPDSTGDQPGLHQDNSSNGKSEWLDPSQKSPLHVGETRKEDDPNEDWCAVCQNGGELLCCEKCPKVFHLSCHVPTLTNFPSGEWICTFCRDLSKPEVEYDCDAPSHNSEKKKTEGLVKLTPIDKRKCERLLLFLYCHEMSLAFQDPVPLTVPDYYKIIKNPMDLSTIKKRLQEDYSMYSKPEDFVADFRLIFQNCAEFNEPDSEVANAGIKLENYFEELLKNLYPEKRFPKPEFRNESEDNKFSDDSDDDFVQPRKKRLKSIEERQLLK
# Liver = assay: Metabolic stability in human liver microsomes by UPLC-MS/MS analysis; type: ADME, microsome
# Peregrin = target: T2, Peregrin (Homo sapiens, UniProt P55201); assay: Inhibition of BRPF1B (unknown origin) binding to histone H3.3 by nonoBRET assay
# T2 sequence (P55201 whole entry): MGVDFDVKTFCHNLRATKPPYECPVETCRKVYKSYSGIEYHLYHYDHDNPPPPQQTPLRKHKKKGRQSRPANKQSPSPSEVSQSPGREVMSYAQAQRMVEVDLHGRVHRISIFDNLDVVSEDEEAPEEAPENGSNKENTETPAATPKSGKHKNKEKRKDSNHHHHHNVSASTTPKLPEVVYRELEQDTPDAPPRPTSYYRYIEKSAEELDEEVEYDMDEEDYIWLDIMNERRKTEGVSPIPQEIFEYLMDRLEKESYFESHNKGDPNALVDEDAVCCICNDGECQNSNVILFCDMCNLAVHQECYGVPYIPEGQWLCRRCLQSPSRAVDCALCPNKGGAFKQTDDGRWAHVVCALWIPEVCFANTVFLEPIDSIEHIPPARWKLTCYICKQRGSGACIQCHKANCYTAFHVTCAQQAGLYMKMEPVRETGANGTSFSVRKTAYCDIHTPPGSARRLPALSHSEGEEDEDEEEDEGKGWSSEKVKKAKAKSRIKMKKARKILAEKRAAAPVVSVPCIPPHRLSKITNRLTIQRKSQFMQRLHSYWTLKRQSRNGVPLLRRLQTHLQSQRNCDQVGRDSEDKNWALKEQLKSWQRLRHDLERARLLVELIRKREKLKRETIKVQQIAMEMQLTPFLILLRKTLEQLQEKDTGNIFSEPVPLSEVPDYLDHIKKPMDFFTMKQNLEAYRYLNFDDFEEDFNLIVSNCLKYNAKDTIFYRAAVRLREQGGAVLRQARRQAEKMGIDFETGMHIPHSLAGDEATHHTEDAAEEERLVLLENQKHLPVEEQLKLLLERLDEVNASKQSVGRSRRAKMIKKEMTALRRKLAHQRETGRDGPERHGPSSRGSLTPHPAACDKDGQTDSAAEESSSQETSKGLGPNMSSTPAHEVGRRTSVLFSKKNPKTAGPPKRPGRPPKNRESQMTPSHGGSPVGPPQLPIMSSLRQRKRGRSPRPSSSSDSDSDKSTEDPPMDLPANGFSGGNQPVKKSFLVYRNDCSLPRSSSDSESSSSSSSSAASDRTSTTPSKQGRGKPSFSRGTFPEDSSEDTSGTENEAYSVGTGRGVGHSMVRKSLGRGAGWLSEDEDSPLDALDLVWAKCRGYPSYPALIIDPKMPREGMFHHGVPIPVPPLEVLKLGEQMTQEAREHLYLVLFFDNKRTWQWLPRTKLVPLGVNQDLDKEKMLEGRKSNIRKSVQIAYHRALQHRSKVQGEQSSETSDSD
# DMS-114 = assay: Inhibition of cell proliferation of human DMS114 cells after 72 hrs by MTS assay; type: functional; details: DMS-114, 72 h
# [3] = Fraction of drug absorbed in CD1 mouse at 3 mg/kg, po by UPLC-MS/MS analysis; type: ADME, organism-based; details: in vivo, read-out: Fabs
# Kir2.1 = target: T3, Kir2.1 (Homo sapiens, UniProt P63252); assay: Inhibition of Kir2.1 (unknown origin) at 30 uM
# T3 sequence (P63252 whole entry): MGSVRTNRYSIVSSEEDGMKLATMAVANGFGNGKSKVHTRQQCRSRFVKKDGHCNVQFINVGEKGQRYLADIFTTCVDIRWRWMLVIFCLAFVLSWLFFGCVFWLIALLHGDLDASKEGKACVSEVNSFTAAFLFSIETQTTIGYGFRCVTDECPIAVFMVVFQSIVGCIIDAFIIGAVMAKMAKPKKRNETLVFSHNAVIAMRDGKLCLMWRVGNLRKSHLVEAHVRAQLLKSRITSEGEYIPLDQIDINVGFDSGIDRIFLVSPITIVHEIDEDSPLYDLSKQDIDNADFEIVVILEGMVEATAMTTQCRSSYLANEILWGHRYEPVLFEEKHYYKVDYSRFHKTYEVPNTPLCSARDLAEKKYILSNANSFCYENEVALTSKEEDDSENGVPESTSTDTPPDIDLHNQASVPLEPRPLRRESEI
smiles,measurement,setting,value
COc1cc(C#N)ccc1S(=O)(=O)Nc1ccc2c(c1)cc(C)c(=O)n2C,IC50,[1],> 33000 nM
same,IC50,[2],1600 nM
same,Stability,Liver,Stable
same,IC50,Peregrin,70 nM
same,GI50,DMS-114,14700 nM
same,Fa,[3],35%
same,inhibition at 30 µM,Kir2.1,< 40%
